Source: the supplement of paper PMC10307832

Columns and labels:
Assay in all cases: relative viability (nuclei count vs DMSO), 5 days (fraction); higher = more cells survive
PAC-1 + Linsitinib = compound: C=CCc1cccc(/C=N/NC(=O)CN2CCN(Cc3ccccc3)CC2)c1O [PAC-1] + C[C@]1(O)C[C@@H](c2nc(-c3ccc4ccc(-c5ccccc5)nc4c3)c3c(N)nccn32)C1 [Linsitinib] (partner 1 µM)
How it was run: (§1)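 Lung cancer cell lines were seeded in 1536-well plates and dosed by pin tool the next day, with either a single drug or a fixed anchor-drug dose combined with five library-drug doses (not always all listed) spaced in √10 steps. Five days later, one step fixed the cells and stained their nuclei (final 0.05% Triton X-100, 1% formaldehyde, 1 ug/ml Hoechst), and nuclei were counted on 4× images. Relative viability is the nuclei count in treated wells divided by the count in vehicle wells, and each value is the median of duplicate plates.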

Ibrutinib + AZD7762 = compound: C=CC(=O)N1CCC[C@@H](n2nc(-c3ccc(Oc4ccccc4)cc3)c3c(N)ncnc32)C1 [Ibrutinib] + NC(=O)Nc1cc(-c2cccc(F)c2)sc1C(=O)N[C@H]1CCCNC1 [AZD7762] (partner 0.2 µM)
How it was run: as §1

Ibrutinib + Decitabine = compound: C=CC(=O)N1CCC[C@@H](n2nc(-c3ccc(Oc4ccccc4)cc3)c3c(N)ncnc32)C1 [Ibrutinib] + Nc1ncn([C@H]2C[C@H](O)[C@@H](CO)O2)c(=O)n1 [Decitabine] (partner 2 µM)
How it was run: as §1

Ibrutinib + Lapatinib = compound: C=CC(=O)N1CCC[C@@H](n2nc(-c3ccc(Oc4ccccc4)cc3)c3c(N)ncnc32)C1 [Ibrutinib] + CS(=O)(=O)CCNCc1ccc(-c2ccc3ncnc(Nc4ccc(OCc5cccc(F)c5)c(Cl)c4)c3c2)o1 [Lapatinib] (partner 2 µM)
How it was run: as §1

Cell Line	relative viability (PAC-1 + Linsitinib; first compound 0.02 µM)	relative viability (PAC-1 + Linsitinib; first compound 0.06325 µM)	relative viability (PAC-1 + Linsitinib; first compound 0.2 µM)	relative viability (PAC-1 + Linsitinib; first compound 2 µM)	relative viability (Ibrutinib + AZD7762; first compound 0.005 µM)	relative viability (Ibrutinib + AZD7762; first compound 0.01581 µM)	relative viability (Ibrutinib + AZD7762; first compound 0.05 µM)	relative viability (Ibrutinib + AZD7762; first compound 0.1581 µM)	relative viability (Ibrutinib + AZD7762; first compound 0.5 µM)	relative viability (Ibrutinib + Decitabine; first compound 0.005 µM)	relative viability (Ibrutinib + Decitabine; first compound 0.01581 µM)	relative viability (Ibrutinib + Decitabine; first compound 0.05 µM)	relative viability (Ibrutinib + Decitabine; first compound 0.1581 µM)	relative viability (Ibrutinib + Decitabine; first compound 0.5 µM)	relative viability (Ibrutinib + Lapatinib; first compound 0.005 µM)	relative viability (Ibrutinib + Lapatinib; first compound 0.01581 µM)	relative viability (Ibrutinib + Lapatinib; first compound 0.05 µM)	relative viability (Ibrutinib + Lapatinib; first compound 0.1581 µM)	relative viability (Ibrutinib + Lapatinib; first compound 0.5 µM)
201T	1.08	0.991	1.02	1	0.539	0.583	0.623	0.66	0.553	0.827	0.842	0.881	0.83	0.799	1.04	0.983	1.08	0.968	1.02
A549	0.527	0.612	0.523	0.583						0.249	0.243	0.311	0.225	0.186	0.931	0.916	1.05	1.08	1.02
A-427	1.14	1.14	1.15	1.08	0.745	0.734	0.757		0.706	0.59	0.574	0.576		0.549	1.01	1.01	1.06	0.982	1.01
ABC-1	0.791	0.746	0.822	1.02	0.904	0.863	0.807	0.759	0.695	0.973	0.929			1.19	1.14	1.19	1.29	1.19	1.26
BEN	0.934	0.91	0.918	0.873	0.473	0.61	0.637	0.506	0.697	0.454	0.817	0.687	0.521	0.646		0.791	0.519	0.526	0.551
CAL-12T	0.925	0.823	0.669	0.808	0.701	0.69	0.544	0.616	0.766						0.615	0.67	0.711	0.647	0.683
COR-L23	0.945	0.937	0.861	1.03						0.428	0.433	0.473	0.461	0.525	1.24	0.948		0.964	0.982
COR-L 105	0.962	0.852	0.868	1.13						0.632	0.534	0.431	0.689	0.403	0.36	0.402	0.368	0.314	0.337
Calu-6	0.826	0.902		0.962											1.07	1.04	0.98	1.13	
ChaGo-K-1					0.85	0.798	0.894	0.833	0.838	0.503	0.484	0.544	0.524	0.54					
EBC-1	0.832	0.923	0.821	0.86											0.199	0.197	0.219	0.186	0.238
EKVX	1.03	1.02	0.941	0.917	0.75	0.61	0.605	0.732	0.246	0.281	0.247	0.421	0.315	0.226	0.178	0.215	0.216	0.191	0.179
EMC-BAC-2	0.8	0.815	0.825	0.82	1.19	1.1	1.1		1.2	0.91	0.962			0.994	0.827	0.864	0.858	0.909	0.899
EPLC-272H		1.14	0.934	1.07		0.232	0.269	0.241	0.191		0.318	0.327	0.381	0.275		1.05	0.877	0.68	0.704
H3255	1.05	0.952	0.862	0.913	0.695	0.767	0.61	0.754	0.418	0.575	0.532		0.636	0.261	0.26	0.28	0.248	0.182	0.218
HARA	0.873	0.958	0.851	1.09	0.495	0.449	0.602	0.318	0.408	0.5	0.486	0.376	0.468	0.264	0.836	0.638	0.727	0.777	0.796
HCC-15	0.967	0.876	0.795	0.935	1.33	1.25	1.19	1.25	1.4	0.711	0.57	0.661	0.581	0.662	1.01	0.819	0.877	0.835	0.865
HCC-44	0.684	0.68	0.678	0.712	1.11				1.07	1	0.96	1	0.976	0.988	1.09	0.948	1.02	1.08	1.02
HCC-78	0.565	0.607	0.544	0.467		0.732	0.251	0.452	0.592		0.824	0.677	0.543	0.702	1.27	0.812	0.57	0.398	0.399
HCC-366	0.587	0.699	0.441	0.772	0.329	0.233	0.247	0.347	0.303	0.422	0.305	0.314	0.346	0.326	1.07	0.978	1.02	0.959	1.19
